What was measured:
Bcl-2-like protein 1 [1] = target: T1, Bcl-2-like protein 1 (Homo sapiens, UniProt Q07817); experiment: Displacement of Bad-derived peptide from Bcl-xL by fluorescence polarization assay
FL5.12 = experiment: Reversal of cytokine withdrawal protection in IL3 dependent Bcl-xL overexpressing mouse FL5.12 cells in presence of 3% FBS; type: functional
Bcl-2-like protein 1 [2] = target: T1, Bcl-2-like protein 1; experiment: Displacement of Bad-derived peptide from Bcl-xL by FPA in presence of 10% human serum
[3] = target: Apoptosis regulator Bcl-2 (Homo sapiens, UniProt P10415); experiment: Displacement of Bax-derived peptide from Bcl2 by fluorescence polarization assay
Apoptosis regulator Bcl-2, sequence (P10415 whole entry): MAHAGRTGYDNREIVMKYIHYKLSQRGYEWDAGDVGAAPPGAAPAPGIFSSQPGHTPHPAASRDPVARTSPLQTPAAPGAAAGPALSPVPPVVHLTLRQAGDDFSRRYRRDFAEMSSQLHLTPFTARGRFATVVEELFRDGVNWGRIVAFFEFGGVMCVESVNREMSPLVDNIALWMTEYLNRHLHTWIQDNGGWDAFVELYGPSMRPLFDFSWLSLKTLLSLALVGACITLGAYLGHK

[4] = Reversal of cytokine withdrawal protection in IL3 dependent Bcl-xL overexpressing mouse FL5.12 cells

T1 sequence (Q07817 whole entry): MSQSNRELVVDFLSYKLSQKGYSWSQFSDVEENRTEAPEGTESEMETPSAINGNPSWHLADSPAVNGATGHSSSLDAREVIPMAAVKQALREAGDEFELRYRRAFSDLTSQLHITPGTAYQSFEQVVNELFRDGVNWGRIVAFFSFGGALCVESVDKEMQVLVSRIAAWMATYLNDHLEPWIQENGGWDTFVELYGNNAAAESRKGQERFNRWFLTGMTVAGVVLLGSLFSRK

| SMILES | Ki (Bcl-2-like protein 1 [1]) [nM] | EC50 (FL5.12) [nM] | IC50 (Bcl-2-like protein 1 [2]) [nM] | Ki [3] [nM] | EC50 [4] [nM] | IC50 (Bcl-2-like protein 1 [1]) [nM] |
| --- | --- | --- | --- | --- | --- | --- |
| CN(C)CC[C@H](CSc1ccccc1)Nc1ccc(S(=O)(=O)NC(=O)c2ccc(N3CCN(Cc4ccccc4-c4cccc(Cl)c4)CC3)cc2)cc1[N+](=O)[O-] | < 0.5 | 2800 | 140 | 16.9 |  |  |
| CN(C)CC[C@H](CSc1ccccc1)Nc1ccc(S(=O)(=O)NC(=O)c2ccc(N3CCN(Cc4ccccc4-c4ccc(C(F)(F)F)cc4)CC3)cc2)cc1[N+](=O)[O-] | < 0.5 | 120 | < 60 | < 1 |  |  |
| CN(C)CC[C@H](CSc1ccccc1)Nc1ccc(S(=O)(=O)NC(=O)c2ccc(N3CCN(Cc4ccccc4-c4ccccc4Cl)CC3)cc2)cc1[N+](=O)[O-] | < 0.5 | 2500 | < 60 | < 1 |  |  |
| CN(C)CC[C@H](CSc1ccccc1)Nc1ccc(S(=O)(=O)NC(=O)c2ccc(N3CCN(Cc4ccccc4-c4ccc(S(C)(=O)=O)cc4)CC3)cc2)cc1[N+](=O)[O-] |  | 6700 | < 60 | < 1 |  | 9.1 |

The remaining compounds from weak to strong by EC50 (FL5.12), led by results:

| Ki (Bcl-2-like protein 1 [1]) [nM] | EC50 (FL5.12) [nM] | IC50 (Bcl-2-like protein 1 [2]) [nM] | Ki [3] [nM] | EC50 [4] [nM] | IC50 (Bcl-2-like protein 1 [1]) [nM] | SMILES |
| --- | --- | --- | --- | --- | --- | --- |
|  | 5100 | 360 |  | 470 |  | CN(C)CC[C@H](CSc1ccccc1)Nc1ccc(S(=O)(=O)NC(=O)c2ccc(N3CCC(C)(C)CC3)cc2)cc1[N+](=O)[O-] |
| < 0.5 | 4500 | 178 | < 1 |  |  | COc1cccc(-c2ccccc2CN2CCN(c3ccc(C(=O)NS(=O)(=O)c4ccc(N[C@H](CCN(C)C)CSc5ccccc5)c([N+](=O)[O-])c4)cc3)CC2)c1 |
| < 0.5 | 700 | < 60 | < 1 |  |  | COc1ccc(-c2ccccc2CN2CCN(c3ccc(C(=O)NS(=O)(=O)c4ccc(N[C@H](CCN(C)C)CSc5ccccc5)c([N+](=O)[O-])c4)cc3)CC2)cc1 |

— ChEMBL document CHEMBL1141382, “Studies leading to potent, dual inhibitors of Bcl-2 and Bcl-xL” (J Med Chem, 2007)
